# According to patent US6875569B2, “Modified lepidopteran receptors and hybrid multifunctional proteins for use in transcription and regulation of transgene expression” (The Salk Institute for Biological Studies, priority 1997, dated 2005):
# “Also recorded” adds a separate entry of the source. Where two headings read alike, the source gives them in different places.
# What was measured:
# [1] = tested on: modified bombyx hormone receptor (VbR); format: cell-based, bombyx mori
# Method: (§1) Transient transfection experiments in CV-1 cells or 293 cells using modified drosophila ecdysone receptor (VdEcR) or modified bombyx hormone receptor (VbR) with or without dimer partners as described. Luc activity is examined 40 hours after transfection and stimulation with ligand (FIG. 2A). Both receptors are assayed in CV-1 cells with 1 μM MurA and no exogenous dimer partner. […] Both receptors are also assayed in the presence of 5 μg/ml tebufenozide (FIG. 2B). […] Both receptors are also assayed with and without dimer partners. VbR was stimulated with 5 μg/ml tebufenozide and VdEcR was stimulated with 1 μM MurA. […] VbR, with no exogenous dimer partner, has an extremely low base-line which is stimulated 200-300 fold by ligand. Note also from this experiment that VdEcR tends to have a much higher baseline than VbR without dimer partner.
# (§2) Tebufenozide is administered to cells co-transfected with nucleic acids encoding receptors: LINX (which encodes the tet-transactivator (TTA)), VbR, TTMT (which encodes the TTA-VbR fusion protein, and TTMT-2V which is like TTMT, but with two VP16 t-domains), to assay for EcRELuc activity (FIG. 2C). Note that teb stimulates VbR, and the TTMT fusions, but has no action on TTA (LINX). The same experiment as that described for 2C, only with a TetO-Luc reporter which responds only to TTA or fusion proteins is summarized in FIG. 2D. […] Note that in this experiment, TTMT and TTMT-2V work better than TTA only (LINX) to stimulate the TetO-luc promoter/reporter. […] An experiment on CV-1 cells transfected with TTMT and two reporters: 6TetO-luc and 4-EcRE-bgalactosidase show both promoters could be simultaneously influenced by the presence or absence of both ligands (FIG. 2E).
# Transient transfections are performed by calcium-phosphate coprecipitation employing standard methods (see Sambrook et al., in Molecular Cloning: A Laboratory Manual. Cold Spring Harbor Press, New York, N.Y. (1989)). All tissue culture experiments are performed using DMEM 10% FBS in a 10% CO2 incubator unless otherwise specified. All transfections are performed in triplicate in 24-well Costar plates using CV-1 cells at an approximately 5×10^4 plating density. Immediately following transfection, 1 μm ligand in 20% EtOH/PBS is added to wells. After 40 additional hours of incubation, cells are harvested and luciferase activity measured in an analytical bioluminescence photometer. Cell extracts are simultaneously examined for LacZ activity of the internal control by standard methods. Bar graph levels represent relative luciferase activity after correction using internal control values.
# [2] = tested on: modified drosophila ecdysone receptor (VdEcR); format: cell-based
# Method: as §1
# (§3) Transient transfections are performed by calcium-phosphate coprecipitation employing standard methods (see Sambrook et al., in Molecular Cloning: A Laboratory Manual. Cold Spring Harbor Press, New York, N.Y. (1989)). All tissue culture experiments are performed using DMEM 10% FBS in a 10% CO2 incubator unless otherwise specified. […] After 40 additional hours of incubation, cells are harvested and luciferase activity measured in an analytical bioluminescence photometer. […]
# [3] = molecular target: T1, tet-transactivator (TTA) (Escherichia coli, UniProt P04483); test: EcRE-Luc reporter co-transfected with LINX; format: cell-based; conditions: FIG. 2C
# T1 construct: expressed in transfected cells; host or cells: CV-1 cells
# T1 sequence (P04483 whole entry, added parts left off): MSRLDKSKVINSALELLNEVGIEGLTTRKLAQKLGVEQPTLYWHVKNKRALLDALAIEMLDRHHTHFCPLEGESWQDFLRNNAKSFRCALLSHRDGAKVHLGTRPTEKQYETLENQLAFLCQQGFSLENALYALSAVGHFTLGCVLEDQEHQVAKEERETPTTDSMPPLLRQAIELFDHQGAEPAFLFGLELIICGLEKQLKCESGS
# Method: as §2, §3
# [4] = tested on: TTMT (TTA-VbR fusion protein); test: EcRE-Luc reporter co-transfected with TTMT; format: cell-based; conditions: FIG. 2C
# Method: as §2, §3
# [5] = tested on: TTMT-2V (TTMT with two VP16 t-domains); test: EcRE-Luc reporter co-transfected with TTMT-2V; format: cell-based; conditions: FIG. 2C
# Method: as §2, §3
# [6] = tested on: VbR; test: Transgene regulation in stably infected rat fibroblasts (MARSHA reporter, VbR retroviral vector); format: cell-based, bombyx mori; conditions: 0.25 μg/ml teb vs higher levels; VbR-luc clonal fibroblast line and VbR-GH clonal line, FIG. 3; listed as teb
# [7] = tested on: mammals and other non-insect species; conditions: extensive testing in animal hosts; previously reported; cited from earlier work
SMILES,"stimulation of VbR, side-by side comparison ([1]; 2.5 μg/ml teb)","stimulation of VbR over base-line by ligand ([1]; 5 μg/ml tebufenozide, VbR with no exogenous dimer partner, experiment with and without dimer partners)","effect of ligand on VbR in the presence of exogenous dimer partner ([1]; 5 μg/ml tebufenozide, exogenous dimer partner (RXR, Usp) present, VbR constitutively activated)","induction of Luc activity by VbR ([1]; 5 μg/ml tebufenozide, no exogenous dimer partner, 40 hours after transfection)","EcRE-Luc activity with VbR ([1]; EcRE-Luc reporter, FIG. 2C)",response of drosophila EcR (Luc activity) ([2]; 5 μg/ml tebufenozide),EcRE-Luc activity with TTA (LINX) [3],EcRE-Luc activity with TTMT [4],EcRE-Luc activity with TTMT-2V [5],"stimulation of full transgene activity, dose comparison [6]",toxicity to mammals [7],"stimulation of VbR, side-by side comparison ([1]; 1 μM MurA)","response of bR (Luc activity) ([1]; CV-1 cells, 1 μM MurA, no exogenous dimer partner)","dimer partner requirement for VdEcR stimulation ([2]; 1 μM MurA, with and without dimer partners)"
CCc1ccc(C(=O)NN(C(=O)c2cc(C)cc(C)c2)C(C)(C)C)cc1 [tebufenozide],effective at stimulating VbR,200-300 fold,inhibited by ligand addition,greater than 200 fold,stimulates,"does not respond at all, and in fact, decreases slightly; also recorded: responds weakly, if at all",no action,stimulates,stimulates,as effective at stimulating full activity as higher levels; also recorded: as effective as higher levels for stimulating full activity,very low toxicity,,,
"CC(C)CC[C@@H](O)[C@](C)(O)[C@H]1CC[C@@]2(O)C3=CC(=O)[C@]4(O)C[C@@H](O)[C@@H](O)C[C@]4(C)[C@H]3[C@H](O)C[C@]12C [MurA, muristerone A]",,,,,,,,,,,,effective at stimulating VbR,responds,RXR and Usp are necessary for VdEcR
